The test system of experiment [1] is ApoB-100-associated lipoproteins. Put plainly: Inhibition of the release of ApoB-100-associated lipoproteins from HepG2 cells (immunoassay for human LDL). To be noted: light absorption 450 nm vs solvent control. It counts as cell-based. As to the method: The test for detecting inhibition of the release of ApoB-100-associated lipoproteins from liver cells was carried out in vitro using cultured liver cells, preferably using cells of the human line HepG2. These cells are grown under standard conditions in medium for the culture of eucaryotic cells, preferably in RPMI 1640 using 10% foetal calf serum. HepG2 cells synthesize and secrete into the culture supernatant ApoB-100-associated lipoprotein particles which in principle are synthesized in a similar manner to the VLDL and LDL particles which are to be found in the plasma.
These particles can be detected using an immunoassay for human LDL. This immunoassay is carried out using antibodies which have been induced in the rabbit against human LDL under standard conditions. The anti-LDL antibodies (rabbit anti-LDL-Ab) were purified by affinity chromatography on an immunosorbent using human LDL. These purified rabbit anti-LDL Ab are adsorbed on the surface of plastic. Expediently, this adsorption is carried out on the plastic surface of microtitre plates having 96 wells, preferably on MaxiSorp plates. If ApoB-100-associated particles are present in the supernatant of Hep-G2 cells, these can bind to the insolubilized rabbit anti-LDL Ab, and an immune complex is formed which is bound to the plastic surface. Unbound proteins are removed by washing. The immune complex located on the plastic surface is detected using monoclonal antibodies which have been induced against human LDL according to standard conditions and purified. These antibodies were conjugated with the enzyme peroxidase. Peroxidase converts the colourless substrate TMB into a coloured product in the presence of H2 O2. After acidification of the reaction mixture using H2 SO4, the specific light absorption at 450 mn is determined, which is a measure of the amount of ApoB-100-associated particles which have been secreted into the culture supernatant by the HepG2 cells.
The IC50 value indicates at which substance concentration the light absorption is inhibited by 50% in comparison with the control (solvent control without substance).

The next experiment has as its system VLDL secretion. As to the kind of experiment: Inhibition of VLDL secretion in vivo (rat) (Triton rat). To be noted: Rattus norvegicus, po, 2 h, 3 mg/kg p.o., (n.s.) for 112, 114, 117, 154, 175, 176, 227, read-out: Triton rat % TG inhibition (p.o.) 2 h after substance. As for the experimental part: The action of the test substances on VLDL secretion is also investigated in the rat. To do this, 500 mg/kg of body weight (2.5 ml/kg) of Triton WR-1339, dissolved in physiological saline solution, are administered to rats intravenously in the tail vein. Triton WR-1339 inhibits lipoprotein lipase and thus leads through inhibition of VLDL catabolism to an increase in the triglyceride and cholesterol level. These increases can be used as a measure of the VLDL secretion rate.
Blood is taken from the animals before and one and two hours after administration of the detergent by puncture of the retroorbital venous plexus. The blood is incubated at room temperature for 1 h for clotting and the serum is recovered by centrifugation at 10,000 g for 20 s. The triglycerides are then determined photometrically at a wavelength of 540 nm by means of a commercially available coupled enzyme test (Sigma Diagnostics®, No. 339). Measurement is carried out with the aid of a likewise coupled enzyme test (Boehringer Mannheim®, No. 1442350) at a wavelength of 546 nm. Samples with triglyceride or cholesterol concentrations which exceed the measuring range of the methods are diluted with physiological saline solution. The respective serum concentrations are determined with the aid of standard series measured in parallel. Test substances are administered orally, intravenously or subcutaneously immediately after the Triton injection.

The test system of experiment [2] is intestinal triglyceride absorption. As to the kind of experiment: Inhibition of intestinal triglyceride absorption in vivo (rats). To be noted: po; for Absorption ED50 or % inhibition: 2 h. Also noted: species or system male Wistar rats. As for the experimental part:
The substances which are to be investigated for their triglyceride absorption-inhibiting action in vivo are administered orally to male Wistar rats having a body weight of between 170 and 230 g. For this purpose, the animals are divided into groups of 6 animals 18 hours before administration of the substance and the feed is then withdrawn from them. Drinking water is available to the animals ad libitum. The animals of the control groups receive an aqueous tragacanth suspension or a tragacanth suspension which contains olive oil. The tragacanth-olive oil suspension is prepared using an Ultra-Turrax. The substances to be investigated are suspended directly before substance administration in a corresponding tragacanth-olive oil suspension, also using an Ultra-Turrax.
Before stomach tube application, blood is taken from each rat by puncture of the retroorbital venous plexus to determine the basal serum triglyceride content. The tragacanth suspension, the tragacanth-olive oil suspensions without substance (control animals) and the substances suspended in a corresponding tragacanth-olive oil suspension are then administered to the fasting animals using a stomach tube. Further taking of blood for the determination of the postprandial serum triglyceride rise is carried out, as a rule, 1,2 and 3 hours after stomach tube application.
The blood samples are centrifuged and, after recovering the serum, the triglycerides are determined photometrically using an EPOS analyzer 5060 (Eppendorf Geratebau, Netheler & Hinz GmbH, Hamburg). The triglycerides are determined by fully enzymatic means using a commercially available UV test.
The postprandial serum triglyceride increase is determined by subtraction of the triglyceride preliminary value of each animal from its corresponding postprandial triglyceride concentrations (1,2 and 3 hours after administration).
The differences (in mmol/l) at each time 1, 2 and 3 hours) are averaged in the groups, and the average values of the serum triglyceride increase (ΔTG) of the substance-treated animals are compared with the animals which only received the tragacanth-oil suspension.
Likewise, the serum triglyceride course of the control animals which received only tragacanth is calculated. The substance effect at each time (1, 2 or 3 hours) is determined as follows and given in Δ% of the oil-loaded control. [formula]
Effect of 10 mg of test substance/kg of body weight p.o. on the triglyceride increase (Δ%) 2 h after a triglyceride loading in the serum of fasting rats. The serum triglyceride increase of fat-loaded control animals based on the serum triglyceride level of tragacanth control animals corresponds to 100%. n=6 animals per group.
Statistical assessment was carried out using student3 s t test after prior checking of the variances for homogeneity.

The mark [3] stands for this setting: Homo sapiens, HepG2, HepG2 cells.

SMILES strings stand for the structures.

Broadly, the IC50 is the midpoint of a concentration-inhibition curve. A low value points to greater potency in that assay. For orientation: ED50 means the midpoint of the dose-response relation.

Turning to `Cn1c(=O)c2c(nc(Cc3ccccc3)n2Cc2ccc(C(C(=O)N[C@@H](CO)c3ccccc3)C3CCCCCC3)cc2)n(C)c1=O` (single isomer, unassigned) [Example 175], in experiment [1] (setting [3]), the IC50 was 32 nM. The inhibition in vivo at 3 mg/kg in the experiment with VLDL secretion came to 9.8%.
`Cc1ccc(Cc2nc3c(c(=O)n(C)c(=O)n3C)n2Cc2ccc(C(C(=O)N[C@@H](CO)c3ccccc3)C3CCCC3)cc2)cc1` (some centres unmarked) [Example 182] showed an IC50 in experiment [1] (setting [3]) of 12 nM. Further, the “Absorption ED50 or % inhibition” value in experiment [2] stood at 2 mg/kg.
For `Cn1c(=O)c2c(nc(Cc3ccccc3)n2Cc2ccc(C(C(=O)N[C@@H](CO)c3ccccc3)C3CCCCCC3)cc2)n(C)c1=O` (some centres unmarked) [Example 174], in that order: 5 nM and less than 2 mg/kg.
For `Cn1c(=O)c2c(nc(-c3ccccn3)n2Cc2ccc(C(C(=O)N[C@@H](CO)c3ccccc3)C3CCCC3)cc2)n(C)c1=O` (some centres unmarked) [Example 151], in that order: 34 nM and 6 mg/kg.
On the same counts, the results for `CN(C)c1ccc(-c2nc3c(c(=O)n(C)c(=O)n3C)n2Cc2ccc(C(C(=O)N[C@@H](CO)c3ccccc3)C3CCCC3)cc2)cc1` (some centres unmarked) [Example 149] are 9 nM and more than 3 mg/kg.
Molecule `Cn1c(=O)c2c(nc(C=Cc3ccccc3)n2Cc2ccc(C(C(=O)N[C@@H](CO)c3ccccc3)C3CCCC3)cc2)n(C)c1=O` (some centres unmarked) [Example 167] registered an IC50 in experiment [1] (setting [3]) of 19 nM. Besides, the “Absorption ED50 or % inhibition” value in experiment [2] is more than 2 mg/kg.
On the same counts, the results for `Cc1cccc(Cc2nc3c(c(=O)n(C)c(=O)n3C)n2Cc2ccc(C(C(=O)N[C@@H](CO)c3ccccc3)C3CCCC3)cc2)c1` (some centres unmarked) [Example 179] are 5 nM and more than 3 mg/kg.
On to `Cn1c(=O)c2c(nc(-c3ccc(Cl)cc3)n2Cc2ccc(C(C(=O)N[C@@H](CO)c3ccccc3)C3CCCC3)cc2)n(C)c1=O` (some centres unmarked) [Example 140], for which the IC50 in experiment [1] (setting [3]) amounted to 10 nM. In experiment [2], the “Absorption ED50 or % inhibition” value is given as more than 3 mg/kg.
On the same counts, the results for `COc1ccccc1Cc1nc2c(c(=O)n(C)c(=O)n2C)n1Cc1ccc(C(C(=O)N[C@@H](CO)c2ccccc2)C2CCCC2)cc1` (some centres unmarked) [Example 197] are 43 nM and 3 mg/kg.
For `Cc1ccccc1Cc1nc2c(c(=O)n(C)c(=O)n2C)n1Cc1ccc(C(C(=O)N[C@@H](CO)c2ccccc2)C2CCCC2)cc1` (some centres unmarked) [Example 178], in that order: 64 nM and 3 mg/kg.
On the same counts, the results for `Cn1c(=O)c2c(nc(-c3ccc(C(F)(F)F)cc3)n2Cc2ccc(C(C(=O)N[C@@H](CO)c3ccccc3)C3CCCC3)cc2)n(C)c1=O` (some centres unmarked) [Example 143] are 11 nM and more than 3 mg/kg.
In experiment [1] (setting [3]), `Cn1c(=O)c2c(nc(CC3CCCCC3)n2Cc2ccc(C(C(=O)N[C@@H](CO)c3ccccc3)C3CCCC3)cc2)n(C)c1=O` (some centres unmarked) [Example 123] gave an IC50 of 8 nM. In experiment [2] (Rattus norvegicus, serum triglyceride increase 2 h after triglyceride loading, fasting rats, read-out: Absorption ED50 or % inhibition), the ED50 turned out to be 2 mg/kg.
In the case of `Cc1ccsc1-c1nc2c(c(=O)n(C)c(=O)n2C)n1Cc1ccc(C(C(=O)N[C@@H](CO)c2ccccc2)C2CCCC2)cc1` (some centres unmarked) [Example 160], in experiment [1] (setting [3]), 5 nM corresponded to half-maximal inhibition (IC50). Moreover, the “Absorption ED50 or % inhibition” value in experiment [2] turned out to be 3 mg/kg.
On the same counts, the results for `Cn1c(=O)c2c(nc(Cc3cccc(Cl)c3)n2Cc2ccc(C(C(=O)N[C@@H](CO)c3ccccc3)C3CCCC3)cc2)n(C)c1=O` (some centres unmarked) [Example 191] are 14 nM and more than 3 mg/kg.
On the same counts, the results for `COc1ccc(-c2nc3c(c(=O)n(C)c(=O)n3C)n2Cc2ccc(C(C(=O)N[C@@H](CO)c3ccccc3)C3CCCC3)cc2)cc1` (some centres unmarked) [Example 146] are 6 nM and more than 3 mg/kg.
For `COc1ccc(Cc2nc3c(c(=O)n(C)c(=O)n3C)n2Cc2ccc(C(C(=O)N[C@@H](CO)c3ccccc3)C3CCCC3)cc2)cc1` (some centres unmarked) [Example 201], in that order: 11 nM and more than 3 mg/kg.
Turning to `Cn1c(=O)c2c(nc(Cc3cccs3)n2Cc2ccc(C(C(=O)N[C@@H](CO)c3ccccc3)C3CCCC3)cc2)n(C)c1=O` (some centres unmarked) [Example 126], inhibition in experiment [1] (setting [3]) was half-maximal at 41 nM (IC50).
The molecule `Cn1c(=O)c2c(nc(-c3cccs3)n2Cc2ccc(C(C(=O)N[C@@H](CO)c3ccccc3)C3CCCC3)cc2)n(C)c1=O` (single isomer, unassigned) [Example 158] returned an IC50 in experiment [1] (HepG2 cells) of 2 nM.
As for `Cc1ccc(-c2nc3c(c(=O)n(C)c(=S)n3C)n2Cc2ccc(C(C(=O)N[C@@H](CO)c3ccccc3)C3CCCC3)cc2)cc1` (some centres unmarked) [Example 226], inhibition in experiment [1] (setting [3]) was half-maximal at 11 nM (IC50).
`Cc1cccc(-c2nc3c(c(=O)n(C)c(=O)n3C)n2Cc2ccc(C(C(=O)N[C@@H](CO)c3ccccc3)C3CCCC3)cc2)c1` (some centres unmarked) [Example 133] yielded an IC50 in experiment [1] (setting [3]) of 5 nM. Also, in experiment [2], the “Absorption ED50 or % inhibition” value came to 2 mg/kg.
In turn, `Cn1c(=O)c2c(nc(Cc3ccccc3)n2Cc2ccc(C(C(=O)N[C@@H](CO)c3ccccc3)C3CCCC3)cc2)n(C)c1=O` (some centres unmarked) [Example 168] yielded an IC50 in experiment [1] (setting [3]) of 16 nM.
In experiment [1] (HepG2 cells), `Cc1ccc(-c2nc3c(c(=O)n(C)c(=O)n3C)n2Cc2ccc(C(C(=O)N[C@@H](CO)c3ccccc3)C3CCCC3)cc2)cc1` (single isomer, unassigned) [Example 137] displayed an IC50 of 124 nM. That is a sub-micromolar value.
On the same count and under the same terms, the result for `Cc1ccc(Cc2nc3c(c(=O)n(C)c(=O)n3C)n2Cc2ccc(C(C(=O)N[C@@H](CO)c3ccccc3)C3CCCC3)cc2)cc1` (single isomer, unassigned) [Example 184] reads 24 nM.
For the molecule `COc1cccc(Cc2nc3c(c(=O)n(C)c(=O)n3C)n2Cc2ccc(C(C(=O)N[C@@H](CO)c3ccccc3)C3CCCC3)cc2)c1` (some centres unmarked) [Example 198], in experiment [1] (setting [3]), inhibition was half-maximal at 5 nM (IC50).
Regarding `Cc1nc2c(c(=O)n(C)c(=O)n2C)n1Cc1ccc(C(C(=O)N[C@@H](CO)c2ccccc2)C2CCCC2)cc1` (some centres unmarked) [Example 119], the IC50 in experiment [1] (setting [3]) amounted to 11 nM. Against the preceding molecule, the IC50 is about 2.2-fold higher.
Molecule `Cn1c(=O)c2c(nc(Cc3ccc(F)cc3)n2Cc2ccc(C(C(=O)N[C@@H](CO)c3ccccc3)C3CCCC3)cc2)n(C)c1=O` (single isomer, unassigned) [Example 195] gave an IC50 in experiment [1] (HepG2 cells) of 5 nM. This lies in the single-digit nanomolar range.
The same measure, in the same setting: next, `Cn1c(=O)c2c(nc(Br)n2Cc2ccc(C(C(=O)N[C@@H](CO)c3ccccc3)C3CCCC3)cc2)n(C)c1=O` (single isomer, unassigned) [Example 118]: 7 nM.

Values taken from US5714494A, “Xanthines in the 7th position with a benzyl acetic acid moiety” (Bayer Aktiengesellschaft, priority 1995, dated 1998).
